Laboratory results reported in patent US8703793B2, “Tricyclic pyridine derivatives, medicaments containing such compounds, their use and process for their preparation” (Boehringer Ingelheim International GmbH, priority 2008, dated 2014).

Molecular target: T1, Recombinant human CETP (Homo sapiens, UniProt P11597)
T1 construct: made in house; host or cells: CHO cells (secreted into conditioned medium)
T1 sequence (P11597 18-493): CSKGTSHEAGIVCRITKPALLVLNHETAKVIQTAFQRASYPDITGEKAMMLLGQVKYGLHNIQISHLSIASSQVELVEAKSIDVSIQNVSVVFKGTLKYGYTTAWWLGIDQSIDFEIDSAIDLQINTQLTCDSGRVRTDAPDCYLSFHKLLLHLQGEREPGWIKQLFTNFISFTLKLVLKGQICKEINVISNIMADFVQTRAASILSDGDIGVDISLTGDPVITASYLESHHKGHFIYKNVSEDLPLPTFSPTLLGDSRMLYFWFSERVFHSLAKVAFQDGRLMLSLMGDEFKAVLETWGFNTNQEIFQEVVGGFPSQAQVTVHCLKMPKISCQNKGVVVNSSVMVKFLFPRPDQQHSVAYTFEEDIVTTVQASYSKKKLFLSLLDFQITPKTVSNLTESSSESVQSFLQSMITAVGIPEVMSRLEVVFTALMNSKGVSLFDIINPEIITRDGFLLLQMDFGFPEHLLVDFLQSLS
Assay: CETP Scintillation Proximity Assay
Assay type: biochemical
Conditions: for IC50: 3H-cholesteryl ester transfer from human HDL donor to biotin labelled LDL, over night at room temperature, read-out: IC50 values for CETP inhibitory activity; for CETP inhibitory potency compared to the other diastereomers: comparison among diastereomers of the same structure
Description: CETP Scintillation Proximity Assay
Recombinant human CETP is partially purified from medium conditioned by CETP expressing CHO cells. In a 96 well homogeneous assay format CETP transfers ^3H-labelled cholesteryl esters from human HDL donor particles to biotin labelled LDL particles. Following over night incubation at room temperature the reaction is stopped by addition of streptavidin-coupled scintillation proximity assay (SPA) beads. These beads captured the biotinylated acceptor particles and the radioactivity is measured. The assay system is purchased and performed according to the manufacturer's recommendations (GE Healthcare).
Inhibitory activity of compounds is determined as percentage of positive control activity containing CETP together with donor and acceptor particles. Background activity is determined by adding buffer instead of CETP. Serial dilution of compound in buffer containing 10% DMSO is performed in order to determine the IC50 values.

Compound	IC50	CETP inhibitory potency compared to the other diastereomers
CC1(C)Cc2nc3c(c(C4CCCC4)c2[C@@H](O)C1)[C@H](c1ccc(C(F)(F)F)cc1)OC31CCCCC1 (single isomer, unassigned) [1 (8), (1′S,8′S)-9′-Cyclopentyl-6′,6′-dimethyl-1′-(4-(trifluoromethyl)phenyl)-5′,6′,7′,8′-tetrahydro-1′H-spiro[cyclohexane-1,3′-furo[3,4-b]quinolin]-8′-ol]	< 1 µM	
CC1(C)Cc2nc3c(c(C4CCCC4)c2[C@@H](O)C1)[C@@H](c1ccc(C(F)(F)F)cc1)OC31CCCCC1 (single isomer, unassigned) [1 (9), (1′R,8′S)-9′-Cyclopentyl-6′,6′-dimethyl-1′-(4-(trifluoromethyl)phenyl)-5′,6′,7′,8′-tetrahydro-1′H-spiro[cyclohexane-1,3′-furo[3,4-b]quinolin]-8′-ol]	< 20 µM	
CC1(C)Cc2nc3c(c(C4CCCC4)c2[C@@H](O)C1)[C@H](c1ccc(C(F)(F)F)cc1)OC31CCCC1 (single isomer, unassigned) [1 (10), (1′S,8′S)-9′-Cyclopentyl-6′,6′-dimethyl-1′-(4-(trifluoromethyl)phenyl)-5′,6′,7′,8′-tetrahydro-1′H-spiro[cyclopentane-1,3′-furo[3,4-b]quinolin]-8′-ol]	< 1 µM	
CC1(C)Cc2nc3c(c(C4CCCC4)c2[C@@H](O)C1)C(c1ccc(C(F)(F)F)cc1)OC3 (single isomer, unassigned) [Diastereomer 1 of Example 1 (3)]	< 20 µM	
CC1OC(c2ccc(C(F)(F)F)cc2)c2c1nc1c(c2C2CCCC2)[C@@H](O)CC(C)(C)C1 (single isomer, unassigned) [Example 1 (1)]	< 2 µM	
CC1OC(c2ccc(C(F)(F)F)cc2)c2c1nc1c(c2C2CCCC2)[C@@H](O)CC(C)(C)C1 (single isomer, unassigned) [Example 1]	< 2 µM	
CC1OC(c2ccc(C(C)(C)C)cc2)c2c1nc1c(c2C2CCCCC2)[C@@H](O)CC(C)(C)C1 (stereo partly drawn) [Example 2, 8-(S)-1-(4-tert-Butyl-phenyl)-9-cyclohexyl-3,6,6-trimethyl-1,3,5,6,7,8-hexahydro-furo[3,4b]quinolin-8-ol]	< 5 µM	

Second part, led by results:

IC50	Compound	CETP inhibitory potency compared to the other diastereomers
< 1 µM	CC1OC(c2ccc(C(F)(F)F)cc2)c2c1nc1c(c2C2CCCC2)[C@@H](O)CC(C)(C)C1 (single isomer, unassigned) [Diastereomer 3 of Example 1 (2)]	higher CETP inhibitory potency as compared to the other diastereomers
< 2 µM	CC1OC(c2ccc(C(F)(F)F)cc2)c2c1nc1c(c2C2CCCC2)[C@@H](O)CC(C)(C)C1 (single isomer, unassigned) [Diastereomer 4 of Example 1 (2)]	
< 5 µM	CC1(C)Cc2nc3c(c(C4CCCC4)c2C(O)C1)C(c1ccc(C(F)(F)F)cc1)OC3(C)C (single isomer, unassigned) [Example 1 (4), 9-Cyclopentyl-3,3,6,6-tetramethyl-1-(4-trifluoromethyl-phenyl)-1,3,5,6,7,8-hexahydro-furo[3,4-b]quinolin-8-ol]	
< 1 µM	CC1(C)Cc2nc3c(c(C4CCCC4)c2[C@@H](O)C1)C(c1ccc(C(F)(F)F)cc1)OC3(C)C (single isomer, unassigned) [Example 1 (5)]	higher CETP inhibitory potency as compared to the other diastereomer
< 20 µM	CC1(C)Cc2nc3c(c(C4CCCC4)c2[C@@H](O)C1)C(c1ccc(C(F)(F)F)cc1)OC3(C)C (single isomer, unassigned) [Example 1 (6)]	
< 1 µM	CC1OC(c2ccc(C(F)(F)F)cc2)c2c1nc1c(c2C2CCCCC2)[C@@H](O)CC(C)(C)C1 (single isomer, unassigned) [Example 1 (7)]	
